Active and inactive are the calls of the source. The rule behind the calls is not given here.
Tests used:
Nicotiana tabacum [1] = assay: Increase of PHA synthase level in rCAB8 transgenic Nicotiana tabacum (tobacco) at 50 uM sprayed on five leaf stage plant once in a week measured after 2 weeks by immunoblot analysis; assay type: functional, organism-based
Nicotiana tabacum [2] = assay: Increase of poly-3-hydroxybutyrate production in rCAB8 transgenic Nicotiana tabacum (tobacco) at 50 uM sprayed on five-leaf stage plant once in a week measured after 1 week relative to control; assay type: functional
Nicotiana tabacum [3] = assay: Increase of leaf dry weight in rCAB8 transgenic Nicotiana tabacum (tobacco) at 10 to 250 uM sprayed on five leaf stage plant once in a week measured after 2 weeks; assay type: functional, organism-based
Nicotiana tabacum [4] = assay: Increase of leaf dry weight in BC3 transgenic Nicotiana tabacum (tobacco) at 10 uM sprayed on five leaf stage plant once in a week measured after 1 week; assay type: functional, organism-based
Nicotiana tabacum [5] = assay: Increase of poly-3-hydroxybutyrate production in BC3 transgenic Nicotiana tabacum (tobacco) at 10 uM sprayed on five-leaf stage plant once in a week measured after 1 week relative to control; assay type: functional
Nicotiana tabacum [6] = assay: Increase of poly-3-hydroxybutyrate production in rCAB8 transgenic Nicotiana tabacum (tobacco) plastids at 50 uM sprayed on five-leaf stage plant once in a week measured after 2 weeks relative to cytosol; assay type: functional
Nicotiana tabacum [7] = assay: Increase of leaf dry weight in BC3 transgenic Nicotiana tabacum (tobacco) sprayed on five-leaf stage plant once in a week measured after 2 weeks; assay type: functional, organism-based
Nicotiana tabacum [8] = assay: Increase of poly-3-hydroxybutyrate production in BC3 transgenic Nicotiana tabacum (tobacco) at 10 uM sprayed on five leaf stage plant once in a week measured after 2 weeks relative to control; assay type: functional
Nicotiana tabacum [9] = assay: Increase of poly-3-hydroxybutyrate production in BC3 transgenic Nicotiana tabacum (tobacco) at 2 to 50 uM sprayed on five-leaf stage plant once in a week measured after 2 weeks relative to control; assay type: functional
Nicotiana tabacum [10] = assay: Increase of poly-3-hydroxybutyrate production in rCAB8 transgenic Nicotiana tabacum (tobacco) at 50 uM sprayed on five-leaf stage plant once in a week measured after 2 weeks relative to control; assay type: functional
Nicotiana tabacum [11] = assay: Increase of poly-3-hydroxybutyrate production in BC3 transgenic Nicotiana tabacum (tobacco) plastids at 10 uM sprayed on five-leaf stage plant once in a week measured after 2 weeks relative to cytosol; assay type: functional
Nicotiana tabacum [12] = assay: Increase of PHA synthase level in BC3 transgenic Nicotiana tabacum (tobacco) at 10 uM sprayed on five leaf stage plant once in a week measured after 2 weeks by immunoblot analysis; assay type: functional, organism-based
Nicotiana tabacum [13] = assay: Increase of poly-3-hydroxybutyrate production in BC3 transgenic Nicotiana tabacum (tobacco) plastids at 1 uM sprayed on five-leaf stage plant once in a week measured after 2 weeks relative to control; assay type: functional
Nicotiana tabacum [14] = assay: Increase of poly-3-hydroxybutyrate production in rCAB8 transgenic Nicotiana tabacum (tobacco) plastids at 0.1 to 10 uM sprayed on five-leaf stage plant once in a week measured after 2 weeks relative to control; assay type: functional, organism-based
Nicotiana tabacum [15] = assay: Increase of poly-3-hydroxybutyrate production in BC3 transgenic Nicotiana tabacum (tobacco) plastids at 10 uM sprayed on five-leaf stage plant once in a week measured after 2 weeks relative to control; assay type: functional, organism-based

SMILES | Activity (Nicotiana tabacum [1]) | Activity (Nicotiana tabacum [2]) [%] | Activity (Nicotiana tabacum [3]) | Activity (Nicotiana tabacum [4]) | Activity (Nicotiana tabacum [5]) [%] | fold change (FC) (Nicotiana tabacum [6]) | Activity (Nicotiana tabacum [7]) | Activity (Nicotiana tabacum [8]) [%] | Activity (Nicotiana tabacum [9]) [%] | Activity (Nicotiana tabacum [10]) [%] | fold change (FC) (Nicotiana tabacum [11]) | Activity (Nicotiana tabacum [12]) | Activity (Nicotiana tabacum [13]) [%] | Activity (Nicotiana tabacum [14]) | Activity (Nicotiana tabacum [15])
CC(Oc1ccc(Oc2cnc3cc(Cl)ccc3n2)cc1)C(=O)O (stereo not given) [QUIZALOFOP] | Active | 120 | Active | Active | 150 | 2.5 | Dose-dependent effect | 170 | 170 | 150 | 2.5 | Active |  |  | 
CC[C@H](C)C(=O)O[C@H]1CCC=C2C=C[C@H](C)[C@H](CC[C@@H]3C[C@@H](O)CC(=O)O3)[C@H]21 [MEVASTATIN] |  |  |  |  |  |  |  |  |  |  |  |  | 192 | Active | inactive

Reference: ChEMBL document CHEMBL3046034, “Enzyme inhibitors to increase poly-3-hydroxybutyrate production by transgenic tobacco” (2002)
